# ± gives the expanded uncertainty stated by the source.
# Legend:
# [1] = Molar enthalpy of transition or fusion; conditions: Crystal; DSC
# [2] = Crystal; DTA
compound,measurement,setting,value
"N#Cc1nccnc1C#N [2,3-pyrazinedicarbonitrile]",Molar enthalpy of transition or fusion,[1],4.73 ± 0.179 kcal/mol
same,Triple point temperature,[2],405.06 ± 0.39 K

# — the NIST ThermoML archive (doi:10.1016/j.jct.2005.07.006)
